{
  "source": "paper PMC5320564",
  "about": "(Journal of molecular biology, 2011)",
  "molecules": {"B1": {"name": "Selenomethionine-substituted EcPhnD (natural protein, E. coli, UniProt P16682 27-338, looked up)", "chain": "EEQEKALNFGIISTESQQNLKPQWTPFLQDMEKKLGVKVNAFFAPDYAGIIQGMRFNKVDIAWYGNLSAMEAVDRANGQVFAQTVAADGSPGYWSVLIVNKDSPINNLNDLLAKRKDLTFGNGDPNSTSGFLVPGYYVFAKNNISASDFKRTVNAGHETNALAVANKQVDVATNNTENLDKLKTSAPEKLKELKVIWKSPLIPGDPIVWRKNLSETTKDKIYDFFMNYGKTPEEKAVLERLGWAPFRASSDLQLVPIRQLALFKEMQGVKSNKGLNEQDKLAKTTEIQAQLDDLDRLNNALSAMSSVSKAVQ", "modifications": "selenomethionine in place of methionine"}, "B2": {"name": "EcPhnD H157A (natural protein, E. coli, UniProt P16682 27-338, looked up)", "chain": "B1 chain with H157A"}},
  "key": {"EcPhnD-K181C:IANBD": {"target": "EcPhnD-K181C:IANBD (Escherichia coli, UniProt P16682, K207C)", "sequence (P16682 27-338 K207C)": "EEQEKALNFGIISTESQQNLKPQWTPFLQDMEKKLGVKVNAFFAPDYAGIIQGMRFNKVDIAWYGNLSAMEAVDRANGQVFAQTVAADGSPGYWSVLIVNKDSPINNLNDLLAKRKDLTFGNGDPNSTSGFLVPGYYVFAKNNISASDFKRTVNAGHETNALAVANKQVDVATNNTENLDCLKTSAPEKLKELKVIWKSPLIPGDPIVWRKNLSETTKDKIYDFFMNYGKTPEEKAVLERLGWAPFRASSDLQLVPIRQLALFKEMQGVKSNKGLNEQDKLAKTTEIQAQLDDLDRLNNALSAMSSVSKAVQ", "test": "biochemical", "type": "binding"}, "EcPhnD-Q17C:IANBD": {"target": "EcPhnD-Q17C:IANBD (Escherichia coli, UniProt P16682, Q43C)", "sequence (P16682 27-338 Q43C)": "as the sequence (P16682 27-338 K207C) above, with Q17C, C181K counted along it", "type": "binding"}, "[1]": {"target": "EcPhnD90-cpGFP.L1ADΔΔ.L297R,L301R (Escherichia coli, UniProt Q1R3F7, L323R/L327R, form not given)", "type": "binding"}, "EcPhnD87-cpGFP": {"test_system": "EcPhnD87-cpGFP", "type": "binding, Escherichia coli"}, "EcPhnD142-cpGFP": {"test_system": "EcPhnD142-cpGFP", "type": "binding, Escherichia coli"}, "[2]": {"test_system": "EcPhnD with cpGFP inserted at position 147", "type": "binding, Escherichia coli"}, "EcPhnD-Q267C:acrylodan": {"target": "EcPhnD-Q267C:acrylodan", "details": "read-out: Phosphonate affinities (Kd); cited from earlier work"}, "EcPhnD": {"target": "EcPhnD (Escherichia coli, UniProt P16682)", "details": "read-out: affinity; cited from earlier work"}, "crystal structure": {"target": "the molecule itself", "test": "crystal structure"}},
  "note": "Where a chain is given by its changes, count along the chain named. In names and notes the source's numbering stands.",
  "data": [
    {"molecule": "NCCP(=O)(O)O", "note": "[2AEP, 2-aminoethylphosphonate]", "values": [
      {"measurement": "Kd", "setting": "EcPhnD-K181C:IANBD", "value": "540 ± 40", "unit": "nM"},
      {"measurement": "ΔF/F0", "setting": "EcPhnD-K181C:IANBD", "value": "−0.72±0.01"},
      {"measurement": "Kd", "setting": "EcPhnD-Q17C:IANBD", "value": "11 ± 5", "unit": "nM"},
      {"measurement": "ΔF/F0", "setting": "EcPhnD-Q17C:IANBD", "value": "1.2±0.1"},
      {"measurement": "ΔF/F0 increase", "setting": "[1]", "value": 1.6},
      {"measurement": "Kd", "setting": "[1]; read-out: Phosphonate affinities (Kd)", "value": "37000 ± 7000", "unit": "nM"},
      {"measurement": "affinity for 2AEP by ITC (in words)", "setting": "EcPhnD87-cpGFP", "value": "high affinity"},
      {"measurement": "affinity for 2AEP by ITC (in words)", "setting": "EcPhnD142-cpGFP", "value": "dramatically decreased affinity"},
      {"measurement": "affinity for 2AEP by ITC (in words)", "setting": "[2]", "value": "dramatically decreased affinity"},
      {"measurement": "Kd", "setting": "EcPhnD-Q267C:acrylodan", "value": 5, "unit": "nM"},
      {"measurement": "Kd", "setting": "EcPhnD", "value": "~5", "unit": "nM"}
    ]},
    {"molecule": "O=C(O)CNCP(=O)(O)O", "note": "[Glyphosate (GP), Glyphosate]", "values": [
      {"measurement": "Kd", "setting": "EcPhnD-K181C:IANBD", "value": "260000 ± 20000", "unit": "nM"},
      {"measurement": "Kd", "setting": "EcPhnD-Q267C:acrylodan", "value": 650000, "unit": "nM"}
    ]},
    {"molecule": "B1", "values": [
      {"measurement": "stoichiometry N", "setting": "crystal structure", "value": 2}
    ]},
    {"molecule": "B2", "values": [
      {"measurement": "stoichiometry N", "setting": "crystal structure", "value": 2}
    ]}
  ]
}
